The values below come from patent US20110039879A1, “METHODS FOR INCREASING WHITE BLOOD CELLS” (FibroGen ,Inc., priority 2007, published 2011).

Holding throughout (type): in vivo, Swiss-Webster mice
For test [1], the system named is monocytes. The experiment in a line: Monocytes by complete blood count on day 8, dosing day 1, 3, 5. Conditions: mice, oral gavage, measured on day 8.
Test [2] relates to total white blood cell (WBC). Nature of the test: Total white blood cells by complete blood count on day 8, dosing day 1, 3, 5. Conditions: Mus musculus, 192 h, mice, oral gavage, measured on day 8, read-out: Total WBC % Increase Over Control; for change in vivo at 100 mg/kg: 100 mg/kg on day 1, day 3 and day 5; for change in vivo at 60 mg/kg: 60 mg/kg on day 1, day 3 and day 5. The gist of the method: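 Male Swiss-Webster mice received test compound by oral gavage with a ball-tipped gavage needle on day 1, day 3 and day 5. On day 8, 200 μl of blood was collected and total white blood cell levels were determined by complete blood count on a CellDyn cell analyzer (Abbott Laboratories), expressed as percent change relative to control.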

Test [3] has as its system neutrophils. The experiment in a line: Neutrophils by complete blood count on day 8, dosing day 1, 3, 5. Particulars: mice, oral gavage, measured on day 8.
Test [4] has as its system lymphocytes. The experiment in a line: Lymphocytes by complete blood count on day 8, dosing day 1, 3, 5. Particulars: mice, oral gavage, measured on day 8. The gist of the method: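 Male Swiss-Webster mice received the compounds by oral gavage through a ball-tipped gavage needle on days 1, 3 and 5. On day 8, 200 μl blood samples were drawn and lymphocyte counts were obtained by complete blood count on a CellDyn cell analyzer (Abbott Laboratories). The change was expressed as percent increase relative to control animals.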

For test [5], the system named is neutrophils. The experiment in a line: Neutrophils by complete blood count on day 8, dosing day 1, 3, 5. Conditions: Mus musculus, Neutrophil, 192 h, mice, oral gavage, measured on day 8, read-out: Neutrophils % Increase Over Control; for change in vivo at 100 mg/kg: 100 mg/kg on day 1, day 3 and day 5; for change in vivo at 60 mg/kg: 60 mg/kg on day 1, day 3 and day 5. The gist of the method: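 Male Swiss-Webster mice received test compounds by oral gavage with a ball-tipped gavage needle on day 1, day 3 and day 5. On day 8, 200 μl blood samples were taken and neutrophil levels were determined by complete blood count on a CellDyn cell analyzer (Abbott Laboratories), expressed as percent increase over control.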

Test [6] concerns total white blood cell (WBC). Nature of the test: Total white blood cells by complete blood count on day 8, dosing day 1, 3, 5. Particulars: mice, oral gavage, measured on day 8.
[7] abbreviates: 100 mg/kg on day 1, day 3 and day 5.
Where [8] appears, read: Mus musculus, Lymphocyte, 192 h, 100 mg/kg on day 1, day 3 and day 5, read-out: Lymphocytes % Increase Over Control.
[9] abbreviates: 60 mg/kg on day 1, day 3 and day 5.
Where [10] appears, read: Mus musculus, Lymphocyte, 192 h, 60 mg/kg on day 1, day 3 and day 5, read-out: Lymphocytes % Increase Over Control.
Where [11] appears, read: 200 mg/kg on day 1, day 3 and day 5.

Turning to `N#Cc1nc(C(=O)NCC(=O)O)c(O)c2ccn(Cc3ccc4ccccc4c3)c12` [Compound R, [(7-Cyano-4-hydroxy-1-naphthalen-2-ylmethyl-1H-pyrrolo[2,3-c]pyridine-5-carbonyl)-amino]-acetic acid], the change in vivo at 100 mg/kg in test [1] (Mus musculus, Monocyte, 192 h, 100 mg/kg on day 1, day 3 and day 5, read-out: Monocytes % Increase Over Control) worked out at 205%; in test [2] it was 290%; in test [4] (setting [8]) it was 330%; in test [5] it was 71%. The Monocytes in test [1] (setting [7]) was 0.3 10^3 cells/μl. Further, the Neutrophils in test [3] (setting [7]) is 1.3 10^3 cells/μl. Besides, the Lymphocytes in test [4] (setting [7]) is given as 21.4 10^3 cells/μl. For the same compound, the “Total WBC” value in test [6] (setting [7]) is 23.0 10^3 cells/μl.

Take `O=C(O)CNC(=O)c1ncc2cc(Br)ccc2c1O` [Compound T, [(7-Bromo-4-hydroxy-isoquinoline-3-carbonyl)-amino]-acetic acid]: the Monocytes in test [1] (setting [9]) was 0.0 10^3 cells/μl. For the same compound, the values for the change in vivo at 60 mg/kg in test [2], in test [4] (setting [10]) and in test [5] were 17%, 13% and 40%, respectively. Also, the Neutrophils in test [3] (setting [9]) is given as 1.0 10^3 cells/μl. Further, the Lymphocytes in test [4] (setting [9]) is reported as 6.2 10^3 cells/μl. Moreover, in test [6] (setting [9]), the “Total WBC” value is 7.3 10^3 cells/μl.

As to `O=C(O)CNC(=O)c1ncc2cc(Oc3ccc(F)c(F)c3)ccc2c1O` [Compound V, {[7-(3,4-Difluoro-phenoxy)-4-hydroxy-isoquinoline-3-carbonyl]-amino}-acetic acid], in test [1] (setting [7]), the Monocytes was 0.1 10^3 cells/μl. For the same compound, the change in vivo at 100 mg/kg in test [2] is 145%; in test [4] (setting [8]) it was 146%; in test [5], 132%. Also, the Neutrophils in test [3] (setting [7]) is listed as 0.8 10^3 cells/μl. In addition, the Lymphocytes in test [4] (setting [7]) was 6.1 10^3 cells/μl. Also, the “Total WBC” value in test [6] (setting [7]) was 7.1 10^3 cells/μl.

Turning to `Cc1nc(C(=O)NCC(=O)O)c(O)c2ccc(Cl)cc12` [Compound Y, [(7-Chloro-4-hydroxy-1-methyl-isoquinoline-3-carbonyl)-amino]-acetic acid], the change in vivo at 200 mg/kg in test [1] (Mus musculus, Monocyte, 192 h, 200 mg/kg on day 1, day 3 and day 5, read-out: Monocytes % Increase Over Control) came out at 700%; in test [2] (setting [11]), 34%; in test [4] (Mus musculus, Lymphocyte, 192 h, 200 mg/kg on day 1, day 3 and day 5, read-out: Lymphocytes % Increase Over Control), 17%; in test [5] (setting [11]), 200%. The Monocytes in test [1] (setting [11]) was 0.2 10^3 cells/μl. For the same compound, in test [3] (setting [11]), the Neutrophils is reported as 1.9 10^3 cells/μl. In addition, in test [4] (setting [11]), the Lymphocytes is recorded as 7.6 10^3 cells/μl. The “Total WBC” value in test [6] (setting [11]) is recorded as 9.8 10^3 cells/μl.

As for `N#Cc1nc(C(=O)NCC(=O)O)c(O)c2ccc(Oc3ccccc3)cc12` [Compound Z, [(1-Cyano-4-hydroxy-7-phenoxy-isoquinoline-3-carbonyl)-amino]-acetic acid], the change in vivo at 60 mg/kg came out at 200% in test [1] (Mus musculus, Monocyte, 192 h, 60 mg/kg on day 1, day 3 and day 5, read-out: Monocytes % Increase Over Control); 6% in test [2]; 0% in test [4] (setting [10]); 80% in test [5]. Moreover, in test [1] (setting [9]), the Monocytes was 0.1 10^3 cells/μl. Besides, in test [3] (setting [9]), the Neutrophils was 1.1 10^3 cells/μl. The Lymphocytes in test [4] (setting [9]) is 7.1 10^3 cells/μl. Also, the “Total WBC” value in test [6] (setting [9]) is 8.3 10^3 cells/μl.
